Reference: patent US20050255537A1, “Method for monitoring treatment with a parathyroid hormone” (priority 1999, published 2005)

Legend:
[1] = test system: BSAP and PICP serum levels, NTX urine levels; assay: Example 3 clinical trial of rhPTH(1-34) vs alendronate: bone markers; format: in vivo, human; conditions: 40 μg/day PTH
Procedure: • Number of Subjects: • rhPTH(1-34): 73 enrolled, 51 finished. • Alendronate (Fosamax®): 73 enrolled, 57 finished. • Diagnosis and Inclusion Criteria: Women aged 65±8 years, postmenopausal for 19±19 years, selected for a baseline spine bone mineral density of 0.8±0.1 and a T value of −2.2. Dosage and Administration: • Test Product (blinded) • rhPTH(1-34): 40 μg/day, given subcutaneously • Reference (Control) Therapy (blinded) • Alendronate (Fosamax®): 10 mg per patient per day • Duration of Treatment: • rhPTH(1-34): 12-18 months, with follow up from time of withdrawal of drug to 18 months of study. • Alendronate: 12-18 months, with follow up from time of withdrawal of drug to 18 months of study. • Criteria for Evaluation: Spine x-ray, serum biological markers (calcium, bone-specific alkaline phosphatase, procollagen I carboxy-terminal propeptide); urine makers (calcium, N-telopeptide, fir deoxypyridinoline); 1,25-dihydroxyvitamin D; bone mineral density spine, hip, wrist, and total body.
Measures of BSAP, PICP, and NTX levels were determined for each patient through the course of therapy generally according to methods described above in Example 1.

[2] = test system: postmenopausal women and osteoporotic men; assay: Example 6 spine BMD treatment-response model and BCM response-indicator neural network (women and men); format: in vivo, human
Description: Data from studies in Examples 1 and 5 above were further analyzed to develop more detailed models for the use of bone markers in monitoring and predicting effects of PTH on clinically significant correlates of efficacy in the treatment of osteoporosis, such as bone mineral density (BMD). Population pharmacodynamic (PD) models were developed for total lumbar spine BMD, and the following biochemical markers of bone formation and resportion: PICP, BSAP, NTX, and DPD. The final treatment-response model for total lumbar spine was used to calculate BMD values at 12 months of treatment for each patient, based on the individual's parameter estimates (empirical Bayesian estimate). These predicted BMD measurements were merged with the observed BCM values, at baseline, 1 month, and 3 months of treatment, for patients who completed at least 12 months of LY333334 treatment. A neural network was developed to characterize the relationship between BCM values at 1 and 3 months and response to treatment, as measured by change in total lumbar spine BMD.
The spine BMD placebo-response model characterized change in total lumbar spine BMD over time in osteoporotic patients taking calcium and vitamin D supplements. The BMD treatment-response model was used to characterize change in total lumbar spine BMD during the course of treatment and to identify patient factors influencing response to therapy. This model was also used to provide individual estimates of change in BMD at 12 months. The BCM treatment-response models characterized changes in PICP, BSAP, NTX, and DPD, during the course of treatment.
The individual estimates of change in spine BMD from the final treatment-response model were combined with observed BCM values to develop the response-indicator neural network. The neural network was used to evaluate change in the biochemical markers as early indicators of change in total lumbar spine BMD.
Change in total lumbar spine BMD at 12 months of treatment was calculated from the post-hoc BMD estimates for each patient from the final spine BMD treatment-response model. These BMD estimates were combined with observed BCM values at baseline, 1, and 3 months for all patients completing at least 12 months of LY333334 therapy.
Neural networks were used to evaluate the biochemical markers as potential indicators of bone mineral density response to LY333334 treatment. The relationship between change in biochemical marker values and change in spine BMD is complex and the appropriate model structure is unknown. The neural network approach was chosen to avoid the a priori assumption of a model form. A proprietary artificial neural network program developed at Eli Lilly and Company (described in Wikel J, Dow E, Heathman M. 1996. Interpretive Neural Networks for QSAR. Network Science [available on-line]) was used to evaluate the BCM values as predictors of change in spine BMD. Other back-propagation networks which are known in the art and commercially available also would provide similar results. The BCM values, as well as significant patient factors from the final spine BMD treatment-response model, were used as inputs to the neural network. The network was trained to predict change in total lumbar spine BMD.

[3] = about 5-6 weeks following termination (18 months)
[4] = Female Patients, BSAP at 3 Months 10-14.99 pM
[5] = Female Patients, BSAP at 3 Months 15-19.99 pM
[6] = Female Patients, BSAP at 3 Months <10 pM
[7] = Female Patients, BSAP at 3 Months ≧20 pM
[8] = Females, change in PICP at 1 month 50-99 pM, baseline PICP <100 pM
[9] = Females, change in PICP at 1 month 50-99 pM, baseline PICP ≧100 pM
[10] = Females, change in PICP at 1 month 100-149 pM, baseline PICP <100 pM
[11] = Females, change in PICP at 1 month 100-149 pM, baseline PICP ≧100 pM
[12] = Females, change in PICP at 1 month <50 pM, baseline PICP <100 pM
[13] = Females, change in PICP at 1 month <50 pM, baseline PICP ≧100 pM
[14] = Females, change in PICP at 1 month ≧150 pM, baseline PICP ≧100 pM
[15] = Male Patients, BSAP at 3 Months 10-14.99 pM
[16] = Male Patients, BSAP at 3 Months 15-19.99 pM
[17] = Male Patients, BSAP at 3 Months <10 pM
[18] = Male Patients, BSAP at 3 Months ≧20 pM
[19] = Males, change in PICP at 1 month 50-99 pM, baseline PICP <100 pM
[20] = Males, change in PICP at 1 month 50-99 pM, baseline PICP ≧100 pM
[21] = Males, change in PICP at 1 month 100-149 pM, baseline PICP <100 pM
[22] = Males, change in PICP at 1 month 100-149 pM, baseline PICP ≧100 pM
[23] = Males, change in PICP at 1 month <50 pM, baseline PICP <100 pM
[24] = Males, change in PICP at 1 month <50 pM, baseline PICP ≧100 pM
[25] = Males, change in PICP at 1 month ≧150 pM, baseline PICP <100 pM
[26] = Males, change in PICP at 1 month ≧150 pM, baseline PICP ≧100 pM
[27] = all patients with baseline PICP >100 pM and increase in PICP >100 pM, 12 months
[28] = male patients with baseline PICP >100 pM and increase in PICP >100 pM
[29] = postmenopausal women with baseline PICP >100 pM and increase in PICP >100 pM

Structure (SMILES): CC[C@H](C)[C@H](NC(=O)[C@H](CCC(=O)O)NC(=O)[C@H](CO)NC(=O)[C@@H](NC(=O)[C@@H](N)CO)C(C)C)C(=O)N[C@@H](CCC(N)=O)C(=O)N[C@@H](CC(C)C)C(=O)N[C@@H](CCSC)C(=O)N[C@@H](Cc1cnc[nH]1)C(=O)N[C@@H](CC(N)=O)C(=O)N[C@@H](CC(C)C)C(=O)NCC(=O)N[C@@H](CCCCN)C(=O)N[C@@H](Cc1cnc[nH]1)C(=O)N[C@@H](CC(C)C)C(=O)N[C@@H](CC(N)=O)C(=O)N[C@@H](CO)C(=O)N[C@@H](CCSC)C(=O)N[C@@H](CCC(=O)O)C(=O)N[C@@H](CCCN=C(N)N)C(=O)N[C@H](C(=O)N[C@@H](CCC(=O)O)C(=O)N[C@@H](Cc1c[nH]c2ccccc12)C(=O)N[C@@H](CC(C)C)C(=O)N[C@@H](CCCN=C(N)N)C(=O)N[C@@H](CCCCN)C(=O)N[C@@H](CCCCN)C(=O)N[C@@H](CC(C)C)C(=O)N[C@@H](CCC(N)=O)C(=O)N[C@@H](CC(=O)O)C(=O)N[C@H](C(=O)N[C@@H](Cc1cnc[nH]1)C(=O)N[C@@H](CC(N)=O)C(=O)N[C@@H](Cc1ccccc1)C(=O)O)C(C)C)C(C)C [LY333334]
- BSAP level after termination of PTH treatment ([1]; (18 months)): BSAP remained at an elevated level
- percent change in PICP serum levels during treatment ([1]; FIG. 8): reached a peak within about one or two months
- percent change in NTX urine levels during treatment ([1]; FIG. 9): increased steadily until about 12 months after treatment initiation
- NTX levels after termination of PTH treatment [1, 3]: had declined but remained elevated compared to pretreatment levels
- PICP levels after termination of PTH treatment [1, 3]: PICP levels were the same pre-treatment levels
- % Change in Spine BMD at 12 Months, 5th-95th Percentiles [2, 4]: 1.5-18.9%
- % Change in Spine BMD at 12 Months, Mean [2, 4]: 9.4%
- % Change in Spine BMD at 12 Months, 5th-95th Percentiles [2, 5]: 3.4-24.7%
- % Change in Spine BMD at 12 Months, Mean [2, 5]: 12.2%
- % Change in Spine BMD at 12 Months, 5th-95th Percentiles [2, 6]: 0.5-15.3%
- % Change in Spine BMD at 12 Months, Mean [2, 6]: 7.2%
- % Change in Spine BMD at 12 Months, 5th-95th Percentiles [2, 7]: 4.6-20.9%
- % Change in Spine BMD at 12 Months, Mean [2, 7]: 12.9%
- % Change in Spine BMD at 12 Months, 5th-95th Percentiles [2, 8]: 2.2-19.0%
- % Change in Spine BMD at 12 Months, Mean [2, 8]: 9.5%
- % Change in Spine BMD at 12 Months, 5th-95th Percentiles [2, 9]: 3.6-18.8%
- % Change in Spine BMD at 12 Months, Mean [2, 9]: 10.4%
- % Change in Spine BMD at 12 Months, 5th-95th Percentiles [2, 10]: 2.9-16.1%
- % Change in Spine BMD at 12 Months, Mean [2, 10]: 10.4%
- % Change in Spine BMD at 12 Months, 5th-95th Percentiles [2, 11]: 6.9-19.7%
- % Change in Spine BMD at 12 Months, Mean [2, 11]: 12.6%
- % Change in Spine BMD at 12 Months, 5th-95th Percentiles [2, 12]: −0.7-12.4%
- % Change in Spine BMD at 12 Months, Mean [2, 12]: 5.7%
- % Change in Spine BMD at 12 Months, 5th-95th Percentiles [2, 13]: 2.9-17.3%
- % Change in Spine BMD at 12 Months, Mean [2, 13]: 9.0%
- % Change in Spine BMD at 12 Months, Mean ([2]; Females, change in PICP at 1 month ≧150 pM, baseline PICP <100 pM): 13.7%
- % Change in Spine BMD at 12 Months, 5th-95th Percentiles [2, 14]: 11.9-31.1%
- % Change in Spine BMD at 12 Months, Mean [2, 14]: 18.5%
- % Change in Spine BMD at 12 Months, 5th-95th Percentiles [2, 15]: 1.9-14.9%
- % Change in Spine BMD at 12 Months, Mean [2, 15]: 7.9%
- % Change in Spine BMD at 12 Months, 5th-95th Percentiles [2, 16]: 3.0-15.0%
- % Change in Spine BMD at 12 Months, Mean [2, 16]: 8.3%
- % Change in Spine BMD at 12 Months, 5th-95th Percentiles [2, 17]: 1.6-13.0%
- % Change in Spine BMD at 12 Months, Mean [2, 17]: 7.1%
- % Change in Spine BMD at 12 Months, 5th-95th Percentiles [2, 18]: 1.6-19.6%
- % Change in Spine BMD at 12 Months, Mean [2, 18]: 10.0%
- % Change in Spine BMD at 12 Months, 5th-95th Percentiles [2, 19]: 4.6-18.1%
- % Change in Spine BMD at 12 Months, Mean [2, 19]: 9.4%
- % Change in Spine BMD at 12 Months, 5th-95th Percentiles [2, 20]: 3.6-15.8%
- % Change in Spine BMD at 12 Months, Mean [2, 20]: 8.7%
- % Change in Spine BMD at 12 Months, 5th-95th Percentiles [2, 21]: 7.2-14.0%
- % Change in Spine BMD at 12 Months, Mean [2, 21]: 11.1%
- % Change in Spine BMD at 12 Months, 5th-95th Percentiles [2, 22]: 4.6-18.6%
- % Change in Spine BMD at 12 Months, Mean [2, 22]: 11.3%
- % Change in Spine BMD at 12 Months, 5th-95th Percentiles [2, 23]: 1.2-11.7%
- % Change in Spine BMD at 12 Months, Mean [2, 23]: 4.8%
- % Change in Spine BMD at 12 Months, 5th-95th Percentiles [2, 24]: 1.5-11.7%
- % Change in Spine BMD at 12 Months, Mean [2, 24]: 6.9%
- % Change in Spine BMD at 12 Months, 5th-95th Percentiles [2, 25]: 2.7-20.8%
- % Change in Spine BMD at 12 Months, Mean [2, 25]: 10.7%
- % Change in Spine BMD at 12 Months, 5th-95th Percentiles [2, 26]: 6.0-18.0%
- % Change in Spine BMD at 12 Months, Mean [2, 26]: 10.2%
- mean increase in total lumbar spine BMD [2, 27]: 13.6%
- minimum increase in total lumbar spine BMD [2, 27]: ≥ 4.3%
- mean increase in total lumbar spine BMD [2, 28]: 10.8%
- minimum increase in total lumbar spine BMD [2, 28]: ≥ 4.3%
- mean increase in total lumbar spine BMD ([2]; men who did not meet the PICP criteria): 7.4%
- mean increase in total lumbar spine BMD ([2]; patients who did not meet the PICP criteria, 12 months): 8.2%
- mean increase in total lumbar spine BMD [2, 29]: 16.0%
- minimum increase in total lumbar spine BMD [2, 29]: ≥ 5.9%
- mean increase in total lumbar spine BMD ([2]; women who did not meet the PICP criteria): 8.8%
